Laboratory results: patent publication US10004701B2, “Methods and compositions for treating infection” (UNIVERSITY OF ROCHESTER, priority 2012, dated 2018)
Counter-ions that a name gives are not always drawn. Like-named read-outs stand apart in the source and are kept apart here.

What was measured:
Assay in all cases: AK assay 384-well format, Prestwick library screening
[1] = tested on: A. baumannii strain 98-37-09; type: cell-based, Acinetobacter baumannii; conditions: Acinetobacter baumannii, 983709, 3 h
[2] = tested on: S. aureus strain USA300-0114; type: cell-based, Staphylococcus aureus; conditions: Staphylococcus aureus, USA300, 3 h
E. cloacae = type: cell-based, Enterobacter cloacae; conditions: Enterobacter cloacae, 3 h
E. faecium = type: cell-based, Enterococcus faecium; conditions: Enterococcus faecium, 3 h
K. pneumoniae = type: cell-based, Klebsiella pneumoniae; conditions: Klebsiella pneumoniae, 3 h
E. coli = type: cell-based, Escherichia coli; conditions: Escherichia coli, 3 h
P. aeruginosa = type: cell-based, Pseudomonas aeruginosa; conditions: Pseudomonas aeruginosa, 3 h
[3] = 50 μM final drug concentration, cutoff for positive-scoring molecules 3-fold increase, read-out: AK-based Prestwick Library Screening Results, A. baumannii (fold increase in extracellular AK activity)
[4] = 50 μM final drug concentration, cutoff for positive-scoring molecules 3-fold increase, read-out: AK-based Prestwick Library Screening Results, S. aureus (fold increase in extracellular AK activity)
[5] = 50 μM final drug concentration, cutoff for positive-scoring molecules 3-fold increase, read-out: AK-based Prestwick Library Screening Results, E. cloacae (fold increase in extracellular AK activity)
[6] = 50 μM final drug concentration, cutoff for positive-scoring molecules 3-fold increase, read-out: AK-based Prestwick Library Screening Results, E. faecium (fold increase in extracellular AK activity)
[7] = 50 μM final drug concentration, cutoff for positive-scoring molecules 3-fold increase, read-out: AK-based Prestwick Library Screening Results, K. pneumoniae (fold increase in extracellular AK activity)
[8] = 50 μM final drug concentration, cutoff for positive-scoring molecules 3-fold increase, read-out: AK-based Prestwick Library Screening Results, E. coli (fold increase in extracellular AK activity)
[9] = 50 μM final drug concentration, cutoff for positive-scoring molecules 3-fold increase, read-out: AK-based Prestwick Library Screening Results, P. aeruginosa (fold increase in extracellular AK activity)
[10] = 50 μM final drug concentration, 384-well format, cutoff for positive-scoring molecules 3-fold increase, read-out: AK-based Prestwick Library Screening Results, A. baumannii (increase in extracellular AK activity)
[11] = 50 μM final drug concentration, 384-well format, cutoff for positive-scoring molecules 3-fold increase, read-out: AK-based Prestwick Library Screening Results, S. aureus (increase in extracellular AK activity)
[12] = 50 μM final drug concentration, 384-well format, cutoff for positive-scoring molecules 3-fold increase, read-out: AK-based Prestwick Library Screening Results, E. cloacae (increase in extracellular AK activity)
[13] = 50 μM final drug concentration, 384-well format, cutoff for positive-scoring molecules 3-fold increase, read-out: AK-based Prestwick Library Screening Results, E. faecium (increase in extracellular AK activity)
[14] = 50 μM final drug concentration, 384-well format, cutoff for positive-scoring molecules 3-fold increase, read-out: AK-based Prestwick Library Screening Results, K. pneumoniae (increase in extracellular AK activity)
[15] = 50 μM final drug concentration, 384-well format, cutoff for positive-scoring molecules 3-fold increase, read-out: AK-based Prestwick Library Screening Results, E. coli (increase in extracellular AK activity)
[16] = 50 μM final drug concentration, 384-well format, cutoff for positive-scoring molecules 3-fold increase, read-out: AK-based Prestwick Library Screening Results, P. aeruginosa (increase in extracellular AK activity)

SMILES: CN1C(C(=O)Nc2ccccn2)=C(O)c2ccccc2S1(=O)=O [Piroxicam]
- fold induction at 50 µM ([1]; planktonic A. baumannii, 50 μM final drug concentration, 384-well, cutoff for positive-scoring molecules 3-fold increase, read-out: AK-based Prestwick Library Screening Results: A. baumannii (increase in extracellular AK activity)): 1
- fold induction at 50 µM ([2]; planktonic S. aureus, 50 μM final drug concentration, 384-well, cutoff for positive-scoring molecules 3-fold increase, read-out: AK-based Prestwick Library Screening Results: S. aureus (increase in extracellular AK activity)): 1.4
- fold induction at 50 µM (E. cloacae; planktonic E. cloacae, 50 μM final drug concentration, 384-well, cutoff for positive-scoring molecules 3-fold increase, read-out: AK-based Prestwick Library Screening Results: E. cloacae (increase in extracellular AK activity)): 1.4
- fold induction at 50 µM (E. faecium; planktonic E. faecium, 50 μM final drug concentration, 384-well, cutoff for positive-scoring molecules 3-fold increase, read-out: AK-based Prestwick Library Screening Results: E. faecium (increase in extracellular AK activity)): 1.1
- fold induction at 50 µM (K. pneumoniae; planktonic K. pneumoniae, 50 μM final drug concentration, 384-well, cutoff for positive-scoring molecules 3-fold increase, read-out: AK-based Prestwick Library Screening Results: K. pneumoniae (increase in extracellular AK activity)): 1
- fold induction at 50 µM (E. coli; planktonic E. coli, 50 μM final drug concentration, 384-well, cutoff for positive-scoring molecules 3-fold increase, read-out: AK-based Prestwick Library Screening Results: E. coli (increase in extracellular AK activity)): 1.2
- fold induction at 50 µM (P. aeruginosa; planktonic P. aeruginosa, 50 μM final drug concentration, 384-well, cutoff for positive-scoring molecules 3-fold increase, read-out: AK-based Prestwick Library Screening Results: P. aeruginosa (increase in extracellular AK activity)): 1.2

SMILES: CC(C)(C)C(=O)OCOC(=O)[C@@H]1N2C(=O)[C@@H](NC(=O)[C@H](N)c3ccccc3)[C@H]2SC1(C)C [Pivampicillin]
- fold induction at 50 µM ([1]; planktonic A. baumannii, 50 μM final drug concentration, […], read-out: AK-based Prestwick library screening result, A. baumannii (fold increase in extracellular AK activity)): 1.8
- fold induction at 50 µM ([2]; planktonic S. aureus, 50 μM final drug concentration, […], read-out: AK-based Prestwick library screening result, S. aureus (fold increase in extracellular AK activity)): 0.4
- fold induction at 50 µM (E. cloacae; planktonic E. cloacae, 50 μM final drug concentration, […], read-out: AK-based Prestwick library screening result, E. cloacae (fold increase in extracellular AK activity)): 1.2
- fold induction at 50 µM (E. faecium; planktonic E. faecium, 50 μM final drug concentration, […], read-out: AK-based Prestwick library screening result, E. faecium (fold increase in extracellular AK activity)): 1.1
- fold induction at 50 µM (K. pneumoniae; planktonic K. pneumoniae, 50 μM final drug concentration, […], read-out: AK-based Prestwick library screening result, K. pneumoniae (fold increase in extracellular AK activity)): 0.9
- fold induction at 50 µM (E. coli; planktonic E. coli, 50 μM final drug concentration, […], read-out: AK-based Prestwick library screening result, E. coli (fold increase in extracellular AK activity)): 1.5
- fold induction at 50 µM (P. aeruginosa; planktonic P. aeruginosa, 50 μM final drug concentration, […], read-out: AK-based Prestwick library screening result, P. aeruginosa (fold increase in extracellular AK activity)): 0.9

SMILES: CC(C)(C)C(=O)OCOC(=O)[C@@H]1N2C(=O)[C@@H](/N=C/N3CCCCCC3)[C@H]2SC1(C)C [Pivmecillinam hydrochloride]
- fold induction at 50 µM [1, 3]: 1.1
- fold induction at 50 µM [2, 4]: 0.6
- fold induction at 50 µM (E. cloacae; [5]): 0.8
- fold induction at 50 µM (E. faecium; [6]): 0.9
- fold induction at 50 µM (K. pneumoniae; [7]): 0.5
- fold induction at 50 µM (E. coli; [8]): 7.7
- fold induction at 50 µM (P. aeruginosa; [9]): 0.6

SMILES: COc1cc([C@@H]2c3cc4c(cc3[C@H](O)[C@H]3COC(=O)[C@H]23)OCO4)cc(OC)c1OC [Podophyllotoxin]
- fold induction at 50 µM ([1]; 50 μM final drug concentration, […], read-out: AK-based Prestwick Library Screening Results, A. baumannii (fold increase in extracellular AK activity)): 1.2
- fold induction at 50 µM ([2]; 50 μM final drug concentration, […], read-out: AK-based Prestwick Library Screening Results, S. aureus (fold increase in extracellular AK activity)): 1
- fold induction at 50 µM (E. cloacae; 50 μM final drug concentration, […], read-out: AK-based Prestwick Library Screening Results, E. cloacae (fold increase in extracellular AK activity)): 1.3
- fold induction at 50 µM (E. faecium; 50 μM final drug concentration, […], read-out: AK-based Prestwick Library Screening Results, E. faecium (fold increase in extracellular AK activity)): 0.9
- fold induction at 50 µM (K. pneumoniae; 50 μM final drug concentration, […], read-out: AK-based Prestwick Library Screening Results, K. pneumoniae (fold increase in extracellular AK activity)): 1.2
- fold induction at 50 µM (E. coli; 50 μM final drug concentration, […], read-out: AK-based Prestwick Library Screening Results, E. coli (fold increase in extracellular AK activity)): 1.2
- fold induction at 50 µM (P. aeruginosa; 50 μM final drug concentration, […], read-out: AK-based Prestwick Library Screening Results, P. aeruginosa (fold increase in extracellular AK activity)): 1.1

SMILES: CC(=O)Nc1ccc(OCC(O)CNC(C)C)cc1 (stereo not shown) [Practolol]
- fold induction at 50 µM ([1]; planktonic A. baumannii, 50 μM final drug concentration, cutoff for positive-scoring molecules 3-fold increase, read-out: AK-based Prestwick Library Screening Results, A. baumannii (increase in extracellular AK activity)): 0.7
- fold induction at 50 µM ([2]; planktonic S. aureus, 50 μM final drug concentration, cutoff for positive-scoring molecules 3-fold increase, read-out: AK-based Prestwick Library Screening Results, S. aureus (increase in extracellular AK activity)): 0.6
- fold induction at 50 µM (E. cloacae; planktonic E. cloacae, 50 μM final drug concentration, cutoff for positive-scoring molecules 3-fold increase, read-out: AK-based Prestwick Library Screening Results, E. cloacae (increase in extracellular AK activity)): 0.8
- fold induction at 50 µM (E. faecium; planktonic E. faecium, 50 μM final drug concentration, cutoff for positive-scoring molecules 3-fold increase, read-out: AK-based Prestwick Library Screening Results, E. faecium (increase in extracellular AK activity)): 0.9
- fold induction at 50 µM (K. pneumoniae; planktonic K. pneumoniae, 50 μM final drug concentration, cutoff for positive-scoring molecules 3-fold increase, read-out: AK-based Prestwick Library Screening Results, K. pneumoniae (increase in extracellular AK activity)): 0.5
- fold induction at 50 µM (E. coli; planktonic E. coli, 50 μM final drug concentration, cutoff for positive-scoring molecules 3-fold increase, read-out: AK-based Prestwick Library Screening Results, E. coli (increase in extracellular AK activity)): 0.7
- fold induction at 50 µM (P. aeruginosa; planktonic P. aeruginosa, 50 μM final drug concentration, cutoff for positive-scoring molecules 3-fold increase, read-out: AK-based Prestwick Library Screening Results, P. aeruginosa (increase in extracellular AK activity)): 0.6

SMILES: C[n+]1ccccc1/C=N/O [Pralidoxime chloride]
- fold induction at 50 µM ([1]; read-out: AK-based Prestwick Library Screening Results, A. baumannii (fold increase in extracellular AK activity)): 1.4
- fold induction at 50 µM ([2]; read-out: AK-based Prestwick Library Screening Results, S. aureus (fold increase in extracellular AK activity)): 1.3
- fold induction at 50 µM (E. cloacae; read-out: AK-based Prestwick Library Screening Results, E. cloacae (fold increase in extracellular AK activity)): 1.5
- fold induction at 50 µM (E. faecium; read-out: AK-based Prestwick Library Screening Results, E. faecium (fold increase in extracellular AK activity)): 1
- fold induction at 50 µM (K. pneumoniae; read-out: AK-based Prestwick Library Screening Results, K. pneumoniae (fold increase in extracellular AK activity)): 1
- fold induction at 50 µM (E. coli; read-out: AK-based Prestwick Library Screening Results, E. coli (fold increase in extracellular AK activity)): 1.3
- fold induction at 50 µM (P. aeruginosa; read-out: AK-based Prestwick Library Screening Results, P. aeruginosa (fold increase in extracellular AK activity)): 1.2

SMILES: CCCCOc1ccc(OCCCN2CCOCC2)cc1 [Pramoxine hydrochloride]
- fold induction at 50 µM [1, 3]: 1.1
- fold induction at 50 µM [2, 4]: 1.3
- fold induction at 50 µM (E. cloacae; [5]): 1.5
- fold induction at 50 µM (E. faecium; [6]): 1
- fold induction at 50 µM (K. pneumoniae; [7]): 1.1
- fold induction at 50 µM (E. coli; [8]): 1.1
- fold induction at 50 µM (P. aeruginosa; [9]): 1.2

SMILES: O=C(C1CCCCC1)N1CC(=O)N2CCc3ccccc3C2C1 (stereo not shown) [Praziquantel]
- fold induction at 50 µM [1, 10]: 0.7
- fold induction at 50 µM [2, 11]: 0.8
- fold induction at 50 µM (E. cloacae; [12]): 0.7
- fold induction at 50 µM (E. faecium; [13]): 1
- fold induction at 50 µM (K. pneumoniae; [14]): 0.6
- fold induction at 50 µM (E. coli; [15]): 0.9
- fold induction at 50 µM (P. aeruginosa; [16]): 0.6

SMILES: CCOC(=O)O[C@]1(C(=O)COC(=O)CC)CC[C@H]2[C@@H]3CCC4=CC(=O)C=C[C@]4(C)[C@H]3[C@@H](O)C[C@@]21C [Prednicarbate]
- fold induction at 50 µM [1, 3]: 0.4
- fold induction at 50 µM [2, 4]: 0.4
- fold induction at 50 µM (E. cloacae; [5]): 0.3
- fold induction at 50 µM (E. faecium; [6]): 0.9
- fold induction at 50 µM (K. pneumoniae; [7]): 0.5
- fold induction at 50 µM (E. coli; [8]): 0.4
- fold induction at 50 µM (P. aeruginosa; [9]): 0.4

SMILES: C[C@]12C=CC(=O)C=C1CC[C@@H]1[C@@H]2[C@@H](O)C[C@@]2(C)[C@H]1CC[C@]2(O)C(=O)CO [Prednisolone]
- fold induction at 50 µM [1, 10]: 1
- fold induction at 50 µM [2, 11]: 0.8
- fold induction at 50 µM (E. cloacae; [12]): 1.3
- fold induction at 50 µM (E. faecium; [13]): 1
- fold induction at 50 µM (K. pneumoniae; [14]): 0.7
- fold induction at 50 µM (E. coli; [15]): 1
- fold induction at 50 µM (P. aeruginosa; [16]): 1
